Tested on: field violet (Viola arvensis, VIOAR)
Assay: Field trials, post-emergence application in winter wheat, % biomass control visually rated
Assay type: in vivo
Description: The materials were applied early post-emergence. % BIOMASS CONTROL was visually rated.

Compound | % BIOMASS CONTROL 39 DAA Obs (Cmpd 1 7.5 g ae/ha) | % BIOMASS CONTROL 181 DAA Obs (Cmpd 1 7.5 g ae/ha) | % BIOMASS CONTROL 225 DAA Obs (Cmpd 1 7.5 g ae/ha) | % BIOMASS CONTROL 39 DAA Obs (flufenacet 240 g ai/ha) | % BIOMASS CONTROL 181 DAA Obs (flufenacet 240 g ai/ha) | % BIOMASS CONTROL 225 DAA Obs (flufenacet 240 g ai/ha)
COC(=O)c1nc(-c2ccc(Cl)c(OC)c2F)cc(N)c1Cl [Cmpd 1, methyl 4-amino-3-chloro-6-(4-chloro-2-fluoro-3-methoxyphenyl)-pyridine-2-carboxylate] | 13.33d % | 23.33f % | 18.33f % | – | – | –
CC(C)N(C(=O)COc1nnc(C(F)(F)F)s1)c1ccc(F)cc1 [Flufenacet, N-(4-fluorophenyl)-N-(1-methylethyl)-2-[[5-(trifluoromethyl)-1,3,4-thiadiazol-2-yl]oxy]acetamide] | – | – | – | 10.00d % | 15.00g % | 10.00g %
